Values joined by “and” are separate entries in the source; they are usually repeats but may differ in a detail not shown here. Equal values may be shown once. Active and inactive are the calls of the source. The rule behind the calls is not given here.
Assays:
Mus musculus [1] = assay: Anticonvulsant activity in Kunming mouse assessed as reduction in Sc3-MP-induced clonic seizure rate at 300 mg/kg, ip administered 0.5 hrs before Sc3-MP stimulation relative to control; type: functional; parameters: scale not given: the % may be the effect or the level left
Mus musculus [2] = assay: Anticonvulsant activity in Kunming mouse assessed as reduction in Sc3-MP-induced tonic seizure rate at 300 mg/kg, ip administered 0.5 hrs before Sc3-MP stimulation relative to control; type: functional; parameters: scale not given: the % may be the effect or the level left
Mus musculus [3] = assay: Anticonvulsant activity in Kunming mouse assessed as MES-induced hind limb extension at 100 mg/kg, ip administered 0. 5 to 2 hrs before MES stimulation; type: functional, organism-based
Mus musculus [4] = assay: Anticonvulsant activity in Kunming mouse assessed as MES-induced hind limb extension at 100 mg/kg, ip administered 3 hrs before MES stimulation; type: functional, organism-based
[5] = Neurotoxicity against Kunming mouse assessed as time remained in rod at 100 mg/kg, ip administered 0.5 to 2 hrs by rotarod test; type: toxicity, organism-based; settings: in vivo
Mus musculus [6] = assay: Anticonvulsant activity in Kunming mouse assessed as MES-induced hind limb extension at 50 mg/kg, ip administered 0.5 to 4 hrs before MES stimulation relative to control; type: functional
Mus musculus [7] = assay: Anticonvulsant activity in Kunming mouse assessed as reduction in ScPTZ-induced seizure at 300 mg/kg, ip administered 0.25 to 2 hrs before ScPTZ stimulation relative to control; type: functional; parameters: scale not given: the % may be the effect or the level left
Mus musculus [8] = assay: Anticonvulsant activity in Kunming mouse assessed as reduction in ScPTZ-induced seizure at 100 mg/kg, ip administered 0.25 to 2 hrs before ScPTZ stimulation relative to control; type: functional
Mus musculus [9] = assay: Anticonvulsant activity in Kunming mouse assessed as reduction in ScPTZ-induced seizure at 100 mg/kg, ip administered 0.5 hrs before ScPTZ stimulation relative to control; type: functional; parameters: scale not given: the % may be the effect or the level left
Mus musculus [10] = assay: Anticonvulsant activity in Kunming mouse assessed as reduction in ScPTZ-induced clonic seizure at 300 mg/kg, ip administered 0.5 hrs before ScPTZ stimulation relative to control; type: functional; parameters: scale not given: the % may be the effect or the level left
Mus musculus [11] = assay: Anticonvulsant activity in Kunming mouse assessed as reduction in ScPTZ-induced clonic seizure at 100 mg/kg, ip administered 0.5 hrs before ScPTZ stimulation relative to control; type: functional; parameters: scale not given: the % may be the effect or the level left
Mus musculus [12] = assay: Anticonvulsant activity in Kunming mouse assessed as reduction in ScPTZ-induced tonic seizure rate at 300 mg/kg, ip administered 0.5 hrs before ScPTZ stimulation relative to control; type: functional; parameters: scale not given: the % may be the effect or the level left
Mus musculus [13] = assay: Anticonvulsant activity in Kunming mouse assessed as reduction in ScPTZ-induced tonic seizure rate at 100 mg/kg, ip administered 0.5 hrs before ScPTZ stimulation relative to control; type: functional; parameters: scale not given: the % may be the effect or the level left
Mus musculus [14] = assay: Anticonvulsant activity in Kunming mouse assessed as reduction in Sc3-MP-induced mortality rate at 300 mg/kg, ip administered 0.5 hrs before Sc3-MP stimulation relative to control; type: functional; parameters: scale not given: the % may be the effect or the level left
Mus musculus [15] = assay: Anticonvulsant activity in ip dosed Kunming mouse assessed as MES-induced hind limb extension administered 0.5 hrs before MES stimulation; type: functional
Mus musculus [16] = assay: Anticonvulsant activity in ip dosed Kunming mouse assessed as reduction in ScPTZ-induced seizure administered 0.5 hrs before ScPTZ stimulation; type: functional
Mus musculus [17] = assay: Anticonvulsant activity in Kunming mouse assessed as reduction in Sc3-MP-induced seizure ip dosed measured at 0.5 hrs before Sc3-MP stimulation; type: functional
Mus musculus [18] = assay: […] activity in ip dosed Kunming mouse assessed as reduction in formalin-induced paw licking administered 0.5 hrs before formalin stimulation; type: functional
[19] = Neurotoxicity against ip dosed Kunming mouse assessed as time remained in rod measured at 0.5 hrs by rotarod test; type: toxicity, organism-based; settings: in vivo
[20] = Protective index, ratio of TD50 for neurotoxicity against ip dosed Kunming mouse assessed as time remained in rod measured at 0.5 hrs by rotarod test to ED50 for anticonvulsant activity in ip dosed Kunming mouse assessed as MES-induced hind limb extension administered 0.5 hrs; type: toxicity, organism-based; settings: in vivo, read-out: PI
[21] = (§1) Protective index, ratio of TD50 for neurotoxicity against ip dosed Kunming mouse assessed as time remained in rod measured at 0.5 hrs by rotarod test to ED50 for anticonvulsant activity in ip dosed Kunming mouse assessed as reduction in ScPTZ-induced seizure administered 0.5 hrs before ScPTZ stimulation; type: toxicity, organism-based; settings: in vivo, read-out: PI
[22] = as §1, with “Sc3-MP-induced” for “ScPTZ-induced”, “Sc3-MP” for “ScPTZ”; type: toxicity, organism-based; settings: in vivo, read-out: PI
[23] = as §1, with “formalin-induced paw licking” for “ScPTZ-induced seizure”, “formalin” for “ScPTZ”; type: toxicity, organism-based; settings: in vivo, read-out: PI
Homo sapiens [24] = organism: Homo sapiens; assay: Inhibition of human LDH1 at 0.5 mM using sodium pyruvate as substrate measured for 60 sec for every 5 mins by LC/MS-MS analysis
Homo sapiens [25] = organism: Homo sapiens; assay: Inhibition of human LDH5 at 0.5 mM using sodium pyruvate as substrate measured for 60 sec for every 5 mins by LC/MS-MS analysis
Mus musculus [26] = assay: Anticonvulsant activity in Kunming mouse assessed as MES-induced hind limb extension at 100 mg/kg, ip administered 0. 5 to 4 hrs before MES stimulation relative to control; type: functional
[27] = Drug metabolism in Sprague-Dawley rat assessed as retention time by HPLC/MS analysis; type: ADME
Mus musculus [28] = assay: Anticonvulsant activity in Kunming mouse assessed as MES-induced hind limb extension at 50 mg/kg, ip administered 0.5 and 2 hrs before MES stimulation relative to control; type: functional
Mus musculus [29] = assay: Anticonvulsant activity in Kunming mouse assessed as reduction in ScPTZ-induced mortality rate at 300 mg/kg, ip administered 0.5 hrs before ScPTZ stimulation relative to control; type: functional; parameters: scale not given: the % may be the effect or the level left
Homo sapiens [30] = organism: Homo sapiens; assay: Inhibition of human LDH1 at 0.5 mM using sodium pyruvate as substrate by UV-VIS spectrophotometry method relative to control
Homo sapiens [31] = organism: Homo sapiens; assay: Inhibition of human LDH5 at 0.5 mM using sodium pyruvate as substrate by UV-VIS spectrophotometry method relative to control
Mus musculus [32] = assay: Anticonvulsant activity in Kunming mouse assessed as reduction in ScPTZ-induced seizure at 100 mg/kg, ip administered 0.25 and 1 hrs before ScPTZ stimulation relative to control; type: functional; parameters: scale not given: the % may be the effect or the level left
Mus musculus [33] = assay: Anticonvulsant activity in Kunming mouse assessed as reduction in Sc3-MP-induced seizure at 300 mg/kg, ip administered 0.25 and 1 hrs before Sc3-MP stimulation relative to control; type: functional, organism-based
Mus musculus [34] = assay: Anticonvulsant activity in Kunming mouse assessed as reduction in Sc3-MP-induced seizure at 300 mg/kg, ip administered 0.5 hrs before Sc3-MP stimulation relative to control; type: functional; parameters: scale not given: the % may be the effect or the level left

COc1cc(OC)c(/C=C/C(=O)OC/C=C/c2cc(OC)c(OC)cc2OC)c(OC)c1
Activity (Mus musculus [1]): 100% | Activity (Mus musculus [2]): 75% | Activity (Mus musculus [3]): Active | Activity (Mus musculus [4]): Active | Activity [5]: Non-Toxic | Activity (Mus musculus [6]): 50% | Activity (Mus musculus [7]): 50% | Activity (Mus musculus [8]): inactive | Activity (Mus musculus [9]): 100% | Activity (Mus musculus [10]): 100% | Activity (Mus musculus [11]): 100% | Activity (Mus musculus [12]): 0% | Activity (Mus musculus [13]): 100% | Activity (Mus musculus [14]): 25% | ED50 (Mus musculus [15]): 157 µmol/kg and 69.8 mg/kg | ED50 (Mus musculus [16]): 212 mg/kg and 476 µmol/kg | ED50 (Mus musculus [17]): > 300 mg/kg and > 675 µmol/kg | ED50 (Mus musculus [18]): 99 mg/kg and 223 µmol/kg | TD50 at 0.5 h [19]: > 2250 µmol/kg and > 1000 mg/kg | selectivity ratio at 0.5 h [20]: > 14.3 | selectivity ratio at 0.5 h [21]: > 4.7 | selectivity ratio at 0.5 h [22]: 3.3 | selectivity ratio at 0.5 h [23]: > 10.1 | inhibition (Homo sapiens [24]): Active | inhibition (Homo sapiens [25]): Active | Activity (Mus musculus [26]): 25 - 100%

COc1cc(OC)c(OC)cc1/C=C/CO
Activity (Mus musculus [3]): Active | Activity [5]: Non-Toxic | ED50 (Mus musculus [15]): 277 µmol/kg and 62 mg/kg | TD50 at 0.5 h [19]: 3070 µmol/kg and 689 mg/kg | selectivity ratio at 0.5 h [20]: 11.1 | Retention_time [27]: 67.5 min

COc1cccc(/C=C/C(=O)OC/C=C/c2cc(OC)c(OC)cc2OC)c1
Activity (Mus musculus [1]): 100% | Activity (Mus musculus [2]): 75% | Activity (Mus musculus [3]): Active | Activity [5]: Non-Toxic | Activity (Mus musculus [28]): inactive | Activity (Mus musculus [7]): 50% | Activity (Mus musculus [8]): inactive | Activity (Mus musculus [10]): 100% | Activity (Mus musculus [11]): 100% | Activity (Mus musculus [12]): 50% | Activity (Mus musculus [13]): 100% | Activity (Mus musculus [29]): 0% | Activity (Mus musculus [14]): 25% | ED50 (Mus musculus [15]): 72.9 mg/kg and 190 µmol/kg | ED50 (Mus musculus [16]): 247 mg/kg and 643 µmol/kg | ED50 (Mus musculus [17]): 249 mg/kg and 647 µmol/kg | ED50 (Mus musculus [18]): > 100 mg/kg and > 260 µmol/kg | TD50 at 0.5 h [19]: > 1000 mg/kg and > 2600 µmol/kg | selectivity ratio at 0.5 h [20]: > 13.7 | selectivity ratio at 0.5 h [21]: > 4.1 | selectivity ratio at 0.5 h [22]: > 4 | selectivity ratio at 0.5 h [23]: > 8.9 | inhibition (Homo sapiens [30]): inactive | inhibition (Homo sapiens [31]): inactive | Activity (Mus musculus [26]): 25 - 100%

COc1cc(OC)c(OC)cc1/C=C/COC(=O)/C=C/c1ccccc1Cl
Activity (Mus musculus [1]): 100% | Activity (Mus musculus [2]): 50% | Activity (Mus musculus [3]): Active | Activity (Mus musculus [4]): Active | Activity [5]: Non-Toxic | Activity (Mus musculus [6]): 50% | Activity (Mus musculus [28]): 75% | Activity (Mus musculus [7]): 50% | Activity (Mus musculus [8]): inactive | Activity (Mus musculus [32]): 75% | Activity (Mus musculus [10]): 100% | Activity (Mus musculus [11]): 100% | Activity (Mus musculus [12]): 25% | Activity (Mus musculus [13]): 100% | Activity (Mus musculus [29]): 0% | Activity (Mus musculus [33]): Active | Activity (Mus musculus [34]): 50% | Activity (Mus musculus [14]): 0% | ED50 (Mus musculus [15]): 151 µmol/kg and 58.7 mg/kg | ED50 (Mus musculus [16]): 150 mg/kg and 385 µmol/kg | ED50 (Mus musculus [17]): 248 mg/kg and 639 µmol/kg | ED50 (Mus musculus [18]): 101 mg/kg and 260 µmol/kg | TD50 at 0.5 h [19]: > 2570 µmol/kg and > 1000 mg/kg | selectivity ratio at 0.5 h [20]: > 17 | selectivity ratio at 0.5 h [21]: > 6.7 | selectivity ratio at 0.5 h [22]: > 4 | selectivity ratio at 0.5 h [23]: > 9.9 | inhibition (Homo sapiens [30]): < 5% | inhibition (Homo sapiens [31]): < 9% | Activity (Mus musculus [26]): 25 - 100%

Reference: ChEMBL document CHEMBL4311969, “Polygala tenuifolia-Acori tatarinowii herbal pair as an inspiration for substituted cinnamic α-asaronol esters: Design, synthesis, anticonvulsant activity, and inhibition of lactate dehydrogenase study” (Eur J Med Chem, 2019)
